Source: PMC12412453 (Toxicology, 2021)
Values joined by “and” are separate entries in the source; they are usually repeats but may differ in a detail not shown here. Identical values can stand only once. Like-named read-outs stand apart in the source and are kept apart here.

Key:
[1] = system: primary human hepatocytes (PHHs); conditions: ref Seo et al., 2020, cited from earlier work; for Max. con.: maximum concentration
[2] = system: primary macaque hepatocytes (PMHs); test: Cytotoxicity by ATP assay; conditions: for Max. con.: maximum concentration
[3] = system: primary human hepatocytes (PHHs); conditions: ref Seo et al., 2020, cited from earlier work; for BMD50: PHH CometChip data reanalyzed using PROAST; for BMDL50–BMDU50 / Potency ranking / DNA damage (ratio of %DNA in tail at highest concentration to vehicle control) / LEC (lowest effective concentration) / BMDU/BMDL: PHH; for BMDL50–BMDU50: 90 % confidence interval of BMD50; for Potency ranking: rank by BMD50 among nine positive compounds; for LEC (lowest effective concentration): lowest concentration positive in comet assay
[4] = reported findings; ref References column of Table 1; cited from earlier work
[5] = reported findings; ref References column of Table 1; cited from earlier work; remark: listed apart in the source
[6] = reported findings; ref References column of Table 1; cited from earlier work; remark: listed apart in the source
cynomolgus monkeys = conditions: dosed cynomolgus monkeys; ref Thorgeirsson et al., 1995; cited from earlier work
[7] = system: primary macaque hepatocytes (PMHs); test: CometChip assay; conditions: for DNA damage (ratio of %DNA in tail at highest concentration to vehicle control) / BMDU/BMDL / LEC (lowest effective concentration) / BMDL50–BMDU50 / Potency ranking: PMH; for DNA damage (ratio of %DNA in tail at highest concentration to vehicle control) / LEC (lowest effective concentration): 24-h treatment; for BMD50: PMH CometChip data, PROAST exponential model; for LEC (lowest effective concentration): lowest concentration positive in comet assay; for BMDL50–BMDU50: 90 % confidence interval of BMD50; for Potency ranking: rank by BMD50 among nine positive compounds; for fold increase in % tail DNA (DNA damage) compared to the vehicle control: PMHs, highest acceptable concentration, range given for four compounds together
[8] = Cytotoxicity by ATP assay; conditions: rhesus macaque, primary macaque hepatocytes (PMHs)

| SMILES | Cytotoxicity ([1]; PHH, ATP assay, 24-h treatment) | Max. con. ([1]; PHH) | Max. con. ([2]; PMH, 24-h treatment) | Cytotoxicity ([2]; PMH, ATP assay, 24-h treatment) | Genotoxicity assay findings in vitro [4] | Carcinogenicity [5] | DNA damage (ratio of %DNA in tail at highest concentration to vehicle control) [3] | Genotoxicity assay findings in vivo [6] | other results |
| --- | --- | --- | --- | --- | --- | --- | --- | --- | --- |
| COc1cc(/C=C/C(=O)CC(=O)/C=C/c2ccc(O)c(OC)c2)ccc1O [Curcumin] | + (11–30 %) | 40 µM | 40 µM | + (11–30 %) | – | – | – | – | – |
| O=[N+]([O-])c1cc[n+]([O-])c2ccccc12 [4-NQO, 4-nitroquinoline 1-oxide] | + (11–30 %) | 5 µM | 7.5 µM | + (11–30 %) | (+) for CA, MLA, Pig-a, comet | – | – | – | BMD50 [3]: 0.3 µM; BMDL50–BMDU50 [3]: 0.1 to 0.6 µM; Potency ranking [3]: 1 |
| CCc1cc(C(N)=S)ccn1 [Ethionamide] | + (11–30 %) | 2000 µM | 2000 µM | + (11–30 %) | – | (−) in rats and mice | − (The ratio ≤ 1.5-fold and p ≥ 0.05) | (−) for comet | – |
| CCCC(O)C(CC)CO (centres unmarked) [2-Ethyl-1,3-hexanediol] | + (11–30 %) | 10,000 μM | 10,000 μM | + (11–30 %) | (+) for CA + S9; (−) for MLA, Hprt, MN, and SCE | (−) in dermal studies | − (The ratio ≤ 1.5-fold and p ≥ 0.05) | – | – |
| Cc1cnc2ccc3c(nc(N)n3C)c2n1 [8-MeIQx, 2-amino-3,8-dimethylimidazo[4,5-f]-quinoxaline] | – | – | – | – | – | – | – | – | DNA adducts in several organs, particularly liver, kidney, and heart (cynomolgus monkeys): high levels of DNA adducts |
| COc1cc2c(c(OC)c1OC)-c1ccc(OC)c(=O)cc1[C@@H](NC(C)=O)CC2 [Colchicine] | + (11–30 %) | – | – | + (11–30 %) | – | – | – | – | – |
| Nc1ccccc1C(=O)O [o-Anthranilic acid] | − (cytotoxicity of 0–10 %) | 5000 µM | 5000 µM | ++ (31–50 %) | – | – | − (The ratio ≤ 1.5-fold and p ≥ 0.05) | (−) for Pig-a, MN, CA, comet | DNA damage (ratio of %DNA in tail at highest concentration to vehicle control) [7]: − (The ratio ≤ 1.5-fold and p ≥ 0.05); cytotoxic effects (in words) ([2]; PMHs, ATP assay, 24-h exposure): cytotoxic effects over the same range of concentrations, but only in PMHs |
| [Cl][Cd][Cl] [CdCl2, cadmium chloride] | + (11–30 %) | 4 µM | 4 µM | ++ (31–50 %) | (+) for MN, CA, MLA, Hprt, comet | (+) for lung, prostate, etc. | + (1.5 < ratio ≤ 2, and p < 0.05) | (+) for CA and MN, comet in liver | BMD50 [3]: 0.9 µM; BMDL50–BMDU50 [3]: 0.5 to 1.6 µM; Potency ranking [3]: 2; LEC (lowest effective concentration) [3]: 1 µM; BMDU/BMDL [3]: 3.2; BMDU/BMDL [7]: 2.3; BMD50 [7]: 0.37 µM and 0.4 µM; DNA damage (ratio of %DNA in tail at highest concentration to vehicle control) [7]: +++ (the ratio > 5); LEC (lowest effective concentration) [7]: 2 µM; BMDL50–BMDU50 [7]: 0.2 to 0.5 µM; Potency ranking [7]: 1; fold increase in % tail DNA (DNA damage) compared to the vehicle control [7]: 6.1–8.1 fold; Cytotoxicity ([1]; PHHs, 4 μM): 25%; Cytotoxicity ([2]; PMHs, 4 μM, 24-h exposure): 43% |
| Cc1c2ccccc2c(C)c2c1ccc1ccccc12 [DMBA, 7,12-dimethylbenzanthracene] | − (cytotoxicity of 0–10 %) | 250 µM | 500 µM | + (11–30 %) | (+) for MLA, CA, MN, comet, and UDS | (+) for mammary liver, skin tumor, etc. | ++ (2 < ratio ≤ 5) | (+) for MN and Pig-a in blood, comet in liver, CA in BM, gene mutation | BMD50 [3]: 15.1 µM; BMDL50–BMDU50 [3]: 8.5 to 25.8 µM; Potency ranking [3]: 6; LEC (lowest effective concentration) [3]: 62.5 µM; BMDU/BMDL [3]: 3.0; BMD50 fold higher in PHHs than in PMHs (lower in PMHs) ([7]; CometChip BMD50, PHH vs PMH): 3.8 fold and 3.75 fold; BMDU/BMDL [7]: 2.4; BMD50 [7]: 4.0 µM; DNA damage (ratio of %DNA in tail at highest concentration to vehicle control) [7]: +++ (the ratio > 5); LEC (lowest effective concentration) [7]: 31.25 µM; BMDL50–BMDU50 [7]: 2.6 to 6.1 µM; Potency ranking [7]: 3; fold increase in % tail DNA (DNA damage) compared to the vehicle control [7]: 6.1–8.1 fold; LEC fold higher in PHHs than in PMHs ([7]; comet assay LEC, PHH vs PMH): 2 fold; cytotoxic effects (in words) ([2]; PMHs, ATP assay, 24-h exposure): cytotoxic effects over the same range of concentrations, but only in PMHs |
| Oc1ccc(O)cc1 [HQ, hydroquinone] | ++ (31–50 %) | 200 µM | 200 µM | + (11–30 %) | (+) for MLA, MN, CA, comet | (+) for liver and kidney adenoma | − (The ratio ≤ 1.5-fold and p ≥ 0.05) | (+) for CA, MN; (−) for comet and TG in liver and stomach | cell viability ([1]; PHHs, 200 μM, range given for cisplatin and HQ together): 55–63%; viability at 24 h, 200 µM [8]: 78 to 81% |
| Cn1c(N)nc2c3cccnc3ccc21 [IQ, 2-amino-3-methylimidazo-[4,5-f]-quinoline] | – | – | – | – | – | – | – | – | DNA adducts in several organs, particularly liver, kidney, and heart (cynomolgus monkeys): high levels of DNA adducts |
| Cn1c(N)nc2ncc(-c3ccccc3)cc21 [PhIP, 2-amino-1-me-thyl-6-phenylimidazo-[4,5-b]-pyridine] | – | – | – | – | – | – | – | – | DNA adducts in several organs, particularly liver, kidney, and heart (cynomolgus monkeys): high levels of DNA adducts |
| Cc1ccc(N)cc1N [2,4-DAT, 2,4-diaminotoluene] | + (11–30 %) | 8000 µM | 8000 µM | + (11–30 %) | (+) for MLA, CA, MN, comet, and UDS; (−) for comet in HepaRG and Hprt | – | ++ (2 < ratio ≤ 5) | (+) for UDS and comet; (+/−) for MN in BM | BMD50 [3]: 880.6 µM; BMDL50–BMDU50 [3]: 489 to 1580 µM; Potency ranking [3]: 9; LEC (lowest effective concentration) [3]: 1414 µM; BMDU/BMDL [3]: 3.2; BMD50 fold higher in PMHs than in PHHs (lower in PHHs) ([7]; CometChip BMD50, PMH vs PHH): 3.2 fold; BMDU/BMDL [7]: 2.6; BMD50 [7]: 2831 µM; DNA damage (ratio of %DNA in tail at highest concentration to vehicle control) [7]: ++ (2 < ratio ≤ 5); LEC (lowest effective concentration) [7]: 8000 µM; BMDL50–BMDU50 [7]: 1790 to 4660 µM; Potency ranking [7]: 9 |
| Oc1cccc(O)c1 [Resorcinol] | ++ (31–50 %) | 2000 µM | 1000 µM | ++ (31–50 %) | – | (−) in rats and mice | − (The ratio ≤ 1.5-fold and p ≥ 0.05) | – | – |
